The values that follow come from US20260256756A1, “USE OF PIPERIDINE ALKENE COMPOUND IN PREPARATION OF DRUG FOR TREATING CANCER” (JIANGSU HANSOH PHARMACEUTICAL GROUP CO., LTD., priority 2023, published 2026).

Each structure is given as a SMILES string.

The subject of one assay is PSN-1 cells. Description: In vitro proliferation inhibition (CellTiter-Glo), PSN-1. The assay is classed as cell-based. As to conditions: Homo sapiens, PSN1; PSN-1, pancreatic cancer, HRD-positive (low expression of MRE11A/CHEK2 protein); 6-10 days culture. The text has this: […]
(§1) Experimental data processing method: The luminescence signal value was used to calculate the inhibition rate. […]
(Cellular ATP, detected with luciferase, serves as a proxy for viable cell number.)

Assay [1] relates to human breast cancer cell line MX-1 xenograft tumor. Briefly: Subcutaneous xenograft tumor model of human breast cancer cell line MX-1. The assay is classed as in vivo, BALB/c nude mice. An excerpt:
• 1. Experimental objective: To evaluate the in vivo efficacy of the compound in a subcutaneous xenograft tumor model of human breast cancer cell line MX-1 in nude mice. • 2. Reagent • RPMI-1640 medium (22400-089, Gibco), fetal bovine serum (FBS) (10099-141C, Gibco) • Phosphate buffer (PBS, 10010-023, Gibco), HPMC (D180HB4005, Shanghai Colorcon Coating Technology Ltd.) • 0.25% Trypsin-EDTA (25200-056, Gibco), Pen Strep (P/S) (15140-122, Gibco) • 3. Experimental operations and data processing • 3.1 Animals: BALB/c nude mice, 8-12 weeks old, female, purchased from the Laboratory Animal Business Department of Shanghai Institute of Planned Parenthood Research. • 3.2 Cell culture and cell suspension preparation • a. A vial of MX-1 cells was taken from a cell bank, the cells were thawed with RPMI-1640 medium (RPMI-1640+10% FBS), and the thawed cells were placed in a cell culture flask (with the cell type, date, the name of the culture operator, etc., being marked on the wall of the flask), which were placed in a CO2 incubator for culturing (wherein the temperature of the incubator was 37° C., and the CO2 concentration was 5%). • b. The cells were passaged every three days, and after passage, the cells were placed in the CO2 incubator to continue the culture. This process was repeated until the cell number met the requirements for in vivo efficacy. • c. The cultured cells were collected, counted using a full-automatic cell counter, and resuspended with PBS on the basis of the counting results to prepare a cell suspension (at a density of 3×10^7/mL), which was then placed in an ice box for later use. • 3.3 Cell inoculation • a. Before inoculation, the nude mice were marked with disposable universal ear tags for mice and rats. • b. At the time of inoculation, the cell suspension was mixed uniformly, 0.1-1 mL of the cell suspension was aspirated using a 1 mL syringe with air bubbles expelled, and the syringe was then placed on an ice bag for later use. • c. The nude mouse was secured with the left hand, the right dorsal area near the right shoulder (inoculation site) of the nude mouse was disinfected with a 75% alcohol cotton ball, and inoculation was initiated after 30 seconds. • d. The experimental nude mice were inoculated sequentially (0.1 mL of cell suspension per mouse). • 3.4 Tumor measurement, grouping and administration in tumor-bearing mice • a. Tumor was measured on days 10-18 after inoculation depending on the tumor growth, and the tumor size was calculated.
tumor volume (mm^3)=length (mm)×width (mm)×width (mm)/2 Tumor volume calculation: • b. According to the body weight of tumor-bearing mice and the size of the tumor, the mice were grouped by random grouping. • c. According to the grouping results, the test drug was started to be administered (administration method: oral administration; administration volume: 10 mL/kg; administration frequency: once/day; administration cycle: 21 days; vehicle: 0.5% HPMC). • d. Tumor measurement and weighing were performed twice a week after starting administration of test drugs. • e. The animals were euthanized at the end of the experiment. • f. Data processing was performed using software such as GraphPad Prism. The tumor inhibitory efficacy of the compound was evaluated by TGI (%) and ΔT/ΔC (%). ΔT/ΔC (%)=(T−T0)/(C−C0)×100, where T and C are the tumor volumes of the treatment group and the vehicle control group at the end of the experiment, respectively, and T0 and C0 are the tumor volumes of the treatment group and the vehicle control group at the beginning of the experiment, respectively. Tumor growth inhibition (TGI) (%)=100−ΔT/ΔC (%). Tumor growth inhibition (TGI) (%)=100−(T−T0)/T0×100 when tumor regression occurs • 4. Experimental conclusion
Background: In xenograft studies the graft and the host belong to different species.

The next assay relates to MX-1 cells. Briefly: In vitro proliferation inhibition (CellTiter-Glo), MX-1. The format is cell-based. The following applies: Homo sapiens, MX1; MX-1, triple-negative breast cancer, BRCA1 mutation; 6-10 days culture.
Description: […]
as §1

Another assay concerns CAOV-3 cells. Briefly: In vitro proliferation inhibition (CellTiter-Glo), CAOV-3. The assay is classed as cell-based. The following applies: Homo sapiens; CAOV-3, ovarian cancer, HRD-positive (low expression of ATM protein); 6-10 days culture.
Description: […]
as §1

[2] abbreviates: MX-1, 3 mg/kg oral once/day, Day 21.
Setting [3] is: MX-1, 100 mg/kg oral once/day, Day 21.

In the case of `CCc1cc2ncc(CN3CCN(c4ccc(C(=O)NC)nc4)CC3)cc2[nH]c1=O` [AZD5305], the figures for the IC50 in the assay on PSN-1 cells, in the assay with MX-1 cells and with CAOV-3 cells were 0.0021 ± 0.0005 µM, 0.0041 ± 0.0016 µM and 0.004 ± 0.0008 µM, respectively. Also, the “Tumor volume (Mean ± SEM)” value stood at 122 ± 17 mm^3 in assay [1] (MX-1, 3 mg/kg oral once/day, Day 0) and 642 ± 132 mm^3 in assay [1] (setting [2]). For the same molecule, the T/C in assay [1] (setting [2]) amounted to 34.13%. The same molecule came in with a TGI in assay [1] (setting [2]) of 70.43%.

Turning to `O=C(c1cc(Cc2n[nH]c(=O)c3ccccc23)ccc1F)N1CCN(C(=O)C2CC2)CC1` [Olaparib], the half-inhibitory concentration (IC50) worked out at 0.065 ± 0.019 µM in the assay on PSN-1 cells, 0.246 ± 0.104 µM in the assay on MX-1 cells and 0.151 ± 0.018 µM with CAOV-3 cells. The “Tumor volume (Mean ± SEM)” value is 122 ± 14 mm^3 in assay [1] (MX-1, 100 mg/kg oral once/day, Day 0) and 1656 ± 289 mm^3 in assay [1] (setting [3]). The T/C in assay [1] (setting [3]) was found to be 88.08%. This molecule had a TGI in assay [1] (setting [3]) of 12.73%.

In general, IC50 refers to the concentration that gives 50% inhibition. One may read the T/C as the result in the treated group divided by that in the control group, in per cent. Broadly, the TGI is the reduction of tumour growth relative to the control group. Higher therefore signals much slowing of growth.
